Measurements reported in patent publication US20240199587A1, “HETEROCYCLIC COMPOUNDS” (Hoffmann-La Roche Inc., priority 2021, published 2024).
pIC50: −log10 of the molar value.

Target: T1, MAGL (Homo sapiens, UniProt Q99685)
T1 sequence (Q99685 1-303): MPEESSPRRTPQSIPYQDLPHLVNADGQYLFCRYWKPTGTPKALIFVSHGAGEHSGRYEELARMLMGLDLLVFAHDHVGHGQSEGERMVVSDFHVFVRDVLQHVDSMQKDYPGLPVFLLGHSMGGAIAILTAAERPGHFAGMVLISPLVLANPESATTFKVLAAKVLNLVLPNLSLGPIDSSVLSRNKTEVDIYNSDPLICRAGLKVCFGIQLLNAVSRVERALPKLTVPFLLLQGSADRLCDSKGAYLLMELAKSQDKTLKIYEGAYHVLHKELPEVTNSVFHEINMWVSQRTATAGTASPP
Assay: 2-AG assay (MAGL inhibitory activity, hydrolysis of 2-arachidonoylglycerol to arachidonic acid followed by mass spectrometry)
Assay type: biochemical
Settings: 8 μM 2-arachidonoylglycerol, 15 min pre-incubation, 30 min incubation at RT, RapidFire MS readout
Outline: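 Arachidonic acid released from 8 μM 2-arachidonoylglycerol was quantified by online SPE triple-quadrupole MS (negative ESI, 303.1→259.1), normalised to d8-arachidonic acid internal standard. Reaction ran 30 min at RT after 15 min RT compound pre-incubation with […] MAGL in TRIS/EDTA/Tween-20 buffer, 2.5% DMSO.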

Row | pIC50 | Molecule
1 | 6.42 | CS(=O)(=O)c1ccc(-c2ccc(C3CN(C(=O)N4CC5(CC(c6ccc(C(F)(F)F)nc6)C5)C4)C3)cn2)c(Cl)c1 [Example 538, [3-[6-(2-chloro-4-methylsulfonyl-phenyl)-3-pyridyl]azetidin-1-yl]-[6-[6-(trifluoromethyl)-3-pyridyl]-2-azaspiro[3.3]heptan-2-yl]methanone]
2 | 6.75 | O=C(N1CC(c2ccc(-c3ccc(Cl)cc3F)cn2)C1)N1CC2(CC(c3ccc(C(F)(F)F)nc3)C2)C1 [Example 539, [3-[5-(4-chloro-2-fluoro-phenyl)-2-pyridyl]azetidin-1-yl]-[6-[6-(trifluoromethyl)-3-pyridyl]-2-azaspiro[3.3]heptan-2-yl]methanone]
3 | 5.47 | CC(C)(C)c1nc(-c2ccc(C(=O)N3CC4(CC(n5cc(C#N)cn5)C4)C3)cc2)no1 [compound 21, 1-[2-[4-(5-tert-butyl-1,2,4-oxadiazol-3-yl)benzoyl]-2-azaspiro[3.3]heptan-6-yl]pyrazole-4-carbonitrile]
4 | 6.73 | O=C(N1CC2(CC(n3cnc(C4CC4)n3)C2)C1)C12CCC(COCC3(C(F)(F)F)CC3)(CC1)C2 [compound 161, [6-(3-cyclopropyl-1,2,4-triazol-1-yl)-2-azaspiro[3.3]heptan-2-yl]-[4-[[1-(trifluoromethyl)cyclopropyl]methoxymethyl]norbornan-1-yl]methanone]
5 | 5.84 | O=C(C1CC(OCC2(C(F)(F)F)CC2)C1)N1CC2(CC(n3cnc(C4CC4)n3)C2)C1 (stereo not shown) [compound 176, [6-(3-cyclopropyl-1,2,4-triazol-1-yl)-2-azaspiro[3.3]heptan-2-yl]-[3-[[1-(trifluoromethyl)cyclopropyl]methoxy]cyclobutyl]methanone]
6 | 8.33 | [6-[3-(1- hydroxycyclopropyl)- 1,2,4-triazol-1-yl]-2- azaspiro[3.3]heptan-2- yl]-[6-[4- (trifluoromethyl)-2- pyridyl]methyl]-2- azaspiro[3.3]heptan-2- yl]methanone [Example 400]

Row | Molecule | pIC50
7 | N-[2-[6-[3-(1- hydroxycyclopropyl)- 1,2,4-triazol-1-yl]-2- azaspiro[3.3]heptane-2- carbonyl]-2- azaspiro[3.3]heptan-6- yl]-3- (trifluoromethyl) benzenesulfonamide [Example 401] | 8.02
